Experiments:
[1] = system: A549 lung cancer cells; test: Dose-dependent inhibition of proliferation (Alamar Blue), A549; type: cell-based, human; conditions: for % proliferation: normalized to mock-transfected cells (0 pM = 100%)
Protocol: (§1) Lipid-based reverse transfections were carried out in triplicate according to a published protocol (Ovcharenko et al., 2005) and the following parameters: Cells (5,000-12,000 per 96 well), 0.1-0.2 μl Lipofectamine™ 2000 (cat. no. 11668-019, Invitrogen Corp., Carlsbad, Calif., USA) in 20 μl OptiMEM (Invitrogen), 30 nM final concentration of miRNA in 100 μl. Electroporation of H226 cells was carried out using the BioRad Gene Pulser Xcell™ instrument (BioRad Laboratories Inc., Hercules, Calif., USA) with the following settings: 5×10^6 cells with 5 μg miRNA in 200 μl OptiMEM (1.6 μM miRNA), square wave pulse at 250 V for 5 ms. Electroporated H226 cells were seeded at 7,000 cells per 96-well in a total volume of 100 μl. All cells except for Calu-3 cells were harvested 72 hours post transfection or electroporation for assessment of cellular proliferation. Calu-3 cells were harvested 10 days post transfection. Proliferation assays were performed using Alamar Blue (Invitrogen) following the manufacturer's instructions. As a control for inhibition of cellular proliferation, siRNA against the motor protein kinesin 11, also known as Eg5, was used. Eg5 is essential for cellular survival of most eukaryotic cells and a lack thereof leads to reduced cell proliferation and cell death (Weil et al., 2002). siEg5 was used in lipid-based transfection following the same experimental parameters that apply to miRNA. The inventors also used a DNA topoisomerase II inhibitor, etoposide, at a final concentration of 10 μM and 50 μM as an internal standard for the potency of miRNAs. Etoposide is an FDA-approved DNA topoisomerase II inhibitor in the treatment of lung cancer. […] Percent (%) proliferation values from the Alamar Blue assay were normalized to values from cells treated with negative control miRNA. Percent proliferation of hsa-miR-126 treated cells relative to cells treated with negative control miRNA (100%) is shown in Table 6 and in FIG. 1.
(§2) The inventors determined sensitivity and specificity of hsa-miR-126 by administering hsa-miR-126 or negative control miRNA at increasing concentrations, ranging from 0 pM to 3,000 pM (Table 7, FIG. 2). Delivery of miRNA and assessment of cellular proliferation of A549 and H460 cells were done as described above. Proliferation values from the Alamar Blue assay were normalized to values obtained from mock-transfected cells (0 pM=100% proliferation). Increasing amounts of negative control miRNA (NC) had no effect on cellular proliferation of A549 or H460 cells (Table 7 and FIG. 2). In contrast, the growth-inhibitory phenotype of hsa-miR-126 is dose-dependent and correlates with increasing amounts of hsa-miR-126 (Table 7 and FIG. 2). Hsa-miR-126 induces a specific therapeutic response at concentrations as low as 300 pM.

[2] = system: MCF12A, BT549, TE353SK, 22Rv1, A549, CRL-5826, HTB-57 cells; conditions: cited from earlier work
[3] = system: lung cancer (A549, HTB-57) or cervical cancer (HeLa) cells; conditions: A549, HTB-57, HeLa; miRNA given before the compound; cited from earlier work
[4] = system: human H460 lung cancer xenografts; test: H460 lung cancer xenograft, cells electroporated before implantation; type: in vivo, NOD/SCID mice; conditions: H460, day 7
Protocol: The inventors assessed the growth-inhibitory activity of hsa-miR-126 in human lung cancer xenografts grown in immunodeficient mice. Hsa-miR-126 was delivered into A549 and H460 lung cancer cells via electroporation using the Gene Pulser Xcell™ (BioRad) with the following settings: 15×10^6 cells with 5 μg miRNA in 200 μl OptiMEM, square wave pulse at 150 V for 10 ms. Electroporated cells (5×10^6) were mixed with BD Matrigel™, (BD Biosciences; San Jose, Calif., USA; cat. no. 356237) in a 1:1 ratio and injected subcutaneously into the flank of NOD/SCID mice (Charles River Laboratories, Inc.; Wilmington, Mass., USA). As a negative control, A549 and H460 cells were electroporated with negative control (NC) miRNA (Pre-miR™ microRNA Precursor Molecule-Negative Control #2; Ambion cat. no. AM17111) as described above. To assess the anti-oncogenic activity of hsa-miR-126, six animals were injected with A459 cells and six animals were injected with H460 cells. NC miRNA-treated cells were injected into the opposite flank of the same animal to control for animal-to-animal variability. Once tumors reached a measurable size (A549 at 7 days post injection; H460 at 5 days post injection), the length and width of tumors were determined every day for up to 11 days. Tumor volumes were calculated using the formula, Volume=length X width X width/2, in which the length is greater than the width. […]

[5] = system: A549 cells; test: Ingenuity Pathways Analysis of affected cellular pathways; parameters: species or system human
Protocol: The mis-regulation of gene expression by hsa-miR-126 (Table 1) affects many cellular pathways that represent potential therapeutic targets for the control of cancer and other diseases and disorders. The inventors determined the identity and nature of the cellular genetic pathways affected by the regulatory cascade induced by hsa-miR-126 expression. Cellular pathway analyses were performed using Ingenuity Pathways Analysis (Version 4.0, Ingenuity® Systems, Redwood City, Calif.). Alteration of a given pathway was determined by Fisher's Exact test (Fisher, 1922).

[6] = system: H460 lung cancer cells; test: Dose-dependent inhibition of proliferation (Alamar Blue), H460; type: cell-based, human; conditions: normalized to mock-transfected cells (0 pM = 100%)
Protocol: as §1, §2

For “hsa-miR-126 (UCGUACCGUGAGUAAUAAUGC; synthetic pre-miR form, further chemistry not given here) [Synthetic hsa-miR-126 (Pre-miR™-hsa-miR-126, Ambion cat. no. AM17100)]”, the “growth-inhibitory phenotype, dose dependence” value ([1]; A549 and H460, 0 pM to 3,000 pM) was “dose-dependent”, the “concentration inducing a specific therapeutic response” value ([1]; A549 and H460, 0 pM to 3,000 pM tested) was ≥ 300 pM and the “% proliferation” value ([1]; A549 cells, 3 pM miRNA) was 95.40%. For the same substance, the “% proliferation” value ([1]; A549 cells, 30 pM miRNA) was 92.87%, the “% proliferation” value ([1]; A549 cells, 300 pM miRNA) was 80.93% and the “% proliferation” value ([1]; A549 cells, 3,000 pM miRNA) was 74.50%. The effect on proliferation [2] was “decreasing proliferation”, the “effect on cell death induced by therapeutic compound (e.g., etoposide)” value [3] was “increased the capacity of the therapeutic compound to induce death” and the “tumor size relative to control tumors” value [4] was “smaller in size”. For the same substance, the “Number of Genes” value ([5]; pathway: Cancer, Cellular Movement, Tumor Morphology) was 23, the “Number of Genes” value ([5]; pathway: Carbohydrate Metabolism, Connective Tissue Disorders, Inflammatory Disease) was 15 and the “Number of Genes” value ([5]; pathway: Cell Cycle, Connective Tissue Development and Function, Immune Response) was 1. For the same substance, the “Number of Genes” value ([5]; pathway: Cell Cycle, Lipid Metabolism, Molecular Transport) was 15, the “Number of Genes” value ([5]; pathway: Cell Death, Cell-To-Cell Signaling and Interaction, Cellular Assembly and Organization) was 1 and the “Number of Genes” value ([5]; pathway: Cell Morphology, Cellular Assembly and Organization, Cellular Development) was 15. The “Number of Genes” value ([5]; pathway: Cell Signaling, Molecular Transport, Neurological Disease) was 1, the “Number of Genes” value ([5]; pathway: Cell-To-Cell Signaling and Interaction, Immune Response, Immune and Lymphatic System Development and Function) was 13 and the “Number of Genes” value ([5]; pathway: Cellular Assembly and Organization, Cancer, Skeletal and Muscular Disorders) was 16. For the same substance, the “Number of Genes” value ([5]; pathway: Cellular Function and Maintenance, Cellular Assembly and Organization, Cell Cycle) was 11, the “Number of Genes” value ([5]; pathway: Cellular Growth and Proliferation, Skeletal and Muscular System Development and Function, Cancer) was 16 and the “Number of Genes” value ([5]; pathway: Cellular Movement, Cellular Assembly and Organization, Drug Metabolism) was 16. The “Number of Genes” value ([5]; pathway: Developmental Disorder, Endocrine System Disorders, Lipid Metabolism) was 1, the “Number of Genes” value ([5]; pathway: Immune Response, Cellular Assembly and Organization, Gene Expression) was 1 and the “Number of Genes” value ([5]; pathway: Molecular Transport, Protein Trafficking, Cell-To-Cell Signaling and Interaction) was 1. For the same substance, the “% proliferation” value ([6]; H460 cells, 3 pM miRNA) was 105.60%, the “% proliferation” value ([6]; H460 cells, 30 pM miRNA) was 108.98% and the “% proliferation” value ([6]; H460 cells, 300 pM miRNA) was 86.46%. For the same substance, the “% proliferation” value ([6]; H460 cells, 3,000 pM miRNA) was 33.91%.

— patent US20090131354A1, “miR-126 REGULATED GENES AND PATHWAYS AS TARGETS FOR THERAPEUTIC INTERVENTION” (priority 2007, published 2009)
